Where two headings read alike, the source gives them in different places. Where a SMILES comes first, the peptide text is derived from it. Bridges are numbered along the chain shown (N, C = ends). [ ]: non-standard residue; d: D form. The star is where a group is joined. Ileψ(thiazoline)Cys = CC[C@H](C)[C@H](N)C1=N[C@H](C(=O)*)CS1; dOrn = NCCC[C@@H](N)C(=O)O
System: p62-dependent mitophagy
Experiment: Luciferase-p62 assay (Fluc-p62 clearance) in mouse embryonic fibroblasts
Format: cell-based
Procedure: To identify p62-dependent materials which increase mitophagy, a Luciferase-p62 Assay was established. This method provides an approach to measure the ability of a material to modulate p62-dependent mitophagy by using an inducible firefly luciferase-p62 (Fluc-p62) reporter cell system. In this assay, p62 levels are driven by doxycycline treatment. After levels increased, expression of Fluc-p62 is turned off by removal of doxycycline, materials are then added and assessed for how they affect clearance of Fluc-p62 protein, which is proportionate to cellular mitophagy rates (Kelly et al.). The negative control is doxycycline induced Luc-p62 in the absence of compound or bioactive material treatment and in the presence of vehicle (DMSO).
Test materials including bioactive materials were screened in mouse embryonic fibroblasts (MEFs, Harada et al.) expressing the TET-inducible p62-fluc construct as previously described (Brown et al.). […] Gibson assembly was used to insert firefly luciferase (Fluc) and p62 into the pCW57.1 backbone. Fluc, p62, and pCW57.1 were polymerase chain reaction (PCR) amplified using pfu polymerase (Life technologies) and Gibson assembly primers with 20 base pair (bp) overhangs. PCR products were separated by agarose gel electrophoreses, and fragments excised and purified before use in DNA assembly reaction with NEBuilder HiFi DNA Assembly kit (New England Biolabs). After the assembly, the reaction mix was transformed into NEB3040 Stable Competent Escherichia coli (New England Biolabs). After 24 hours growth at 31 degrees Celsius the plasmid was extracted using QIAprep Spin Miniprep kit (Qiagen). The plasmid was sequenced to confirm correct insertion of Fluc-p62. To generate MEFs stably expressing doxycycline inducible Fluc-p62, HEK293FT cells were transfected with Fluc-p62-pCW57.1 and the ViraPower Packaging Mix (Invitrogen) to produce lentivirus. MEFs were transduced with the obtained lentiviral stock following followed by selection with 1 microgram per milliliter puromycin.Fluc-p62expressing MEFs were maintained in DMEM supplemented with 10 percent fetal bovine serum (FBS), 100 units per milliliter penicillin/streptomycin, and 2 millimolar L-glutamine in a humidified atmosphere containing 5 percent carbon dioxide at 37 degrees Celsius. Cells were plated into white 96 well plates (2,000 cells per well with 100 microliters media) and allowed to settle for 24 hours. […] Subsequently, cells were treated with test materials for 48 hours in normal growth medium and analysed using ONE-Glo™+Tox Luciferase Reporter and Cell Viability Assay (Promega) by following the manufacturer's protocol.
Test compositions and control compositions were prepared as described above in the Luciferase-p62 assay (Method 3) and tested accordingly. The compounds used in this example, as examples of bioactive materials, were from the APExBIO DiscoveryProbe™ Natural Product Library Plus (Houston, TX) and evaluated at equivalent concentrations (10 μM).
Data are additionally calculated as percentage of activity relative to rapamycin, a benchmark control compound tested in the same experiment.

[1] = Luciferase-p62 assay, mouse embryonic fibroblasts (MEFs), compounds at 10 μM
[2] = percentage of Luciferase-p62 clearance relative to baseline (mean luminescence in the absence of doxycycline induction), MEFs, 10 μM
[3] = percentage of activity relative to rapamycin tested in the same experiment at the same concentration, MEFs, 10 μM

SMILES: C[C@]12CCC(=O)C=C1CC[C@@H]1[C@@H]2[C@@H](O)C[C@@]2(C)[C@H]1CC[C@]2(O)C(=O)COC(=O)CCC(=O)[O-].[Na+]
- Mean Luminescence [1]: 927.92
- % Activity over baseline [2]: 42.65%
- % Activity relative to Rapamycin [3]: 76.85%

SMILES: Nc1nc(=O)c2c([nH]1)NCC(CNc1ccc(C(=O)N[C@@H](CCC(=O)O)C(=O)O)cc1)N2C=O (mixture of isomers) [Folinic acid]
- Mean Luminescence [1]: 762.92
- % Activity over baseline [2]: 52.85%
- % Activity relative to Rapamycin [3]: 95.22%

SMILES: O=C1O[C@H]2[C@@H]3OC(=O)c4cc(O)c(O)c(O)c4-c4c(O)c(O)c5oc(=O)c6c(c(O)c(O)c7oc(=O)c4c5c76)-c4c(cc(O)c(O)c4O)C(=O)OC[C@H]3OC(O)[C@@H]2OC(=O)c2cc(O)c(O)c(O)c2-c2c1cc(O)c(O)c2O (mixture of isomers) [Punicalagin]
- Mean Luminescence [1]: 782.52
- % Activity over baseline [2]: 51.64%
- % Activity relative to Rapamycin [3]: 93.04%

SMILES: C[N+](C)(C)CC(O)CC(=O)O.[Cl-] (racemic) [DL-Carnitine HCl]
- Mean Luminescence [1]: 902.01
- % Activity over baseline [2]: 44.26%
- % Activity relative to Rapamycin [3]: 79.74%

SMILES: CC(C)(CO)C(O)C(=O)NCCCO (racemic) [DL-Panthenol]
- Mean Luminescence [1]: 991.50
- % Activity over baseline [2]: 38.72%
- % Activity relative to Rapamycin [3]: 69.77%

SMILES: CSCCC(NC(C)=O)C(=O)O (racemic) [N-Acetyl-DL-methionine]
- Mean Luminescence [1]: 973.29
- % Activity over baseline [2]: 39.85%
- % Activity relative to Rapamycin [3]: 71.80%

SMILES: O=C1C=CC(=O)C=C1 [1,4-Benzoquinone]
- Mean Luminescence [1]: 422.02
- % Activity over baseline [2]: 73.92%
- % Activity relative to Rapamycin [3]: 133.18%

SMILES: Cl.Cl.NCCCCN [1,4-Diaminobutane dihydrochloride]
- Mean Luminescence: 902.42
- % Activity over baseline (10 µM): 44.23%
- % Activity relative to Rapamycin (10 µM): 79.69%

SMILES: O=c1ccn2c(n1)O[C@H]1[C@H](O)[C@@H](CO)O[C@H]12 [2,2′-Cyclouridine]
- Mean Luminescence [1]: 935.30
- % Activity over baseline [2]: 42.20%
- % Activity relative to Rapamycin [3]: 76.03%

SMILES: CC(=O)C(C)=NO [2,3-Butanedione-2-monoxime]
- Mean Luminescence [1]: 762.32
- % Activity over baseline [2]: 52.89%
- % Activity relative to Rapamycin [3]: 95.29%

SMILES: Cc1cnc(C)cn1 [2,5-Dimethyl pyrazine]
- Mean Luminescence [1]: 842.32
- % Activity over baseline [2]: 47.94%
- % Activity relative to Rapamycin [3]: 86.38%

SMILES: CC(=O)c1cc(O)ccc1O [2′,5′-Dihydroxyacetophenone]
- Mean Luminescence [1]: 709.63
- % Activity over baseline [2]: 56.14%
- % Activity relative to Rapamycin [3]: 101.16%

SMILES: O=C(O)Cc1cccc(O)c1 [3-Hydroxyphenylacetic acid]
- Mean Luminescence [1]: 888.33
- % Activity over baseline [2]: 45.10%
- % Activity relative to Rapamycin [3]: 81.26%

SMILES: CC(CC(=O)O)CC(=O)O [3-Methylglutaric acid]
- Mean Luminescence [1]: 818.33
- % Activity over baseline [2]: 49.43%
- % Activity relative to Rapamycin [3]: 89.05%

SMILES: COc1ccc(CC(=O)O)cc1 [4-Methoxyphenylacetic acid]
- Mean Luminescence [1]: 929.33
- % Activity over baseline [2]: 42.57%
- % Activity relative to Rapamycin [3]: 76.69%

SMILES: C=CCCC(=O)O [4-Pentenoic acid]
- Mean Luminescence [1]: 936.28
- % Activity over baseline [2]: 42.14%
- % Activity relative to Rapamycin [3]: 75.92%

SMILES: C=C1CCC2C(C=C(C)C(=O)C3(OC(C)=O)CC(C)C(OC(=O)c4ccccc4)C3C1OC(C)=O)C2(C)C (centres unmarked) [5,15-Diacetyl-3-benzoyllathyrol]
- Mean Luminescence [1]: 927.14
- % Activity over baseline [2]: 42.70%
- % Activity relative to Rapamycin [3]: 76.94%

SMILES: C=CCNC1=C2C[C@@H](C)C[C@H](OC)[C@H](O)[C@@H](C)/C=C(\C)[C@H](OC(N)=O)[C@@H](OC)/C=C\C=C(/C)C(=O)NC(=CC1=O)C2=O [17-AAG (KOS953)]
- Mean Luminescence [1]: 299.07
- % Activity over baseline [2]: 81.52%
- % Activity relative to Rapamycin [3]: 146.87%

SMILES: C=C(C)[C@H]1CC=C(C)C(=O)C1 [(S)-(+)-Carvone]
- Mean Luminescence [1]: 802.50
- % Activity over baseline [2]: 50.40%
- % Activity relative to Rapamycin [3]: 90.82%

SMILES: CC1(C)C2CCC1(C)C(O)C2 (centres unmarked) [(—)-Borneol]
- Mean Luminescence [1]: 967.20
- % Activity over baseline [2]: 40.23%
- % Activity relative to Rapamycin [3]: 72.48%

SMILES: COc1ccc(/C=C/C(=O)/C=C(O)/C=C/c2ccc(OC)c(OC)c2)cc1OC [ASC-J9]
- Mean Luminescence [1]: 664.12
- % Activity over baseline [2]: 58.96%
- % Activity relative to Rapamycin [3]: 106.23%

SMILES: Nc1ncnc2c1ncn2[C@@H]1O[C@H](COP(=O)(O)OP(=O)(O)OP(=O)(O)O)[C@@H](O)[C@H]1O [ATP]
- Mean Luminescence [1]: 875.39
- % Activity over baseline [2]: 45.90%
- % Activity relative to Rapamycin [3]: 82.70%

SMILES: COc1cc(C=O)ccc1OC(C)=O [Acetylvanillin]
- Mean Luminescence [1]: 979.34
- % Activity over baseline [2]: 39.48%
- % Activity relative to Rapamycin [3]: 71.13%

SMILES: Cc1cnc(C(=O)O)c[n+]1[O-] [Acipimox]
- Mean Luminescence [1]: 922.85
- % Activity over baseline [2]: 42.97%
- % Activity relative to Rapamycin [3]: 77.42%

SMILES: COc1cc(C)c(/C=C/C(C)=C/C=C/C(C)=C/C(=O)O)c(C)c1C [Acitretin]
- Mean Luminescence [1]: 883.02
- % Activity over baseline [2]: 45.43%
- % Activity relative to Rapamycin [3]: 81.85%

SMILES: Nc1ncnc2c1ncn2[C@@H]1O[C@H](COP(=O)(O)O)[C@@H](O)[C@H]1O [Adenosine 5-monophosphate]
- Mean Luminescence [1]: 890.00
- % Activity over baseline [2]: 45.00%
- % Activity relative to Rapamycin [3]: 81.07%

SMILES: C=C1CC[C@@H]2[C@](C)(CO)[C@H](O)CC[C@@]2(C)[C@@H]1C/C=C1/C(=O)OC[C@H]1O [Andrographolide]
- Mean Luminescence [1]: 818.97
- % Activity over baseline [2]: 49.39%
- % Activity relative to Rapamycin [3]: 88.98%

SMILES: O=c1ccc2ccc3occc3c2o1 [Angelicin]
- Mean Luminescence [1]: 910.28
- % Activity over baseline [2]: 43.74%
- % Activity relative to Rapamycin [3]: 78.82%

SMILES: COc1cc(C(C)=O)ccc1O [Apocynin]
- Mean Luminescence [1]: 973.30
- % Activity over baseline [2]: 39.85%
- % Activity relative to Rapamycin [3]: 71.80%

SMILES: CO[C@H]1O[C@@H]2O[C@@]3(C)CC[C@H]4[C@H](C)CC[C@@H]([C@H]1C)[C@@]24OO3 [Artemether (SM-224)]
- Mean Luminescence [1]: 596.56
- % Activity over baseline [2]: 63.13%
- % Activity relative to Rapamycin [3]: 113.75%

SMILES: C[C@@H]1CC[C@H]2[C@@H](C)C(=O)O[C@@H]3O[C@@]4(C)CC[C@@H]1[C@]32OO4 [Artemisinine]
- % Activity over baseline [2]: 39.29%

SMILES: CC[C@@H]1/C=C(\C)C[C@H](C)C[C@H](OC)[C@H]2O[C@@](O)(C(=O)C(=O)N3CCCC[C@H]3C(=O)O[C@H](/C(C)=C/[C@@H]3CC[C@@H](O)[C@H](OC)C3)[C@H](C)[C@@H](O)CC1=O)[C@H](C)C[C@@H]2OC [Ascomycin(FK 520)]
- Mean Luminescence [1]: 640.39
- % Activity over baseline [2]: 60.42%
- % Activity relative to Rapamycin [3]: 108.87%

SMILES: CC1(C)CC[C@]2(C(=O)O[C@@H]3O[C@H](CO[C@@H]4O[C@H](CO)[C@@H](O)[C@H](O)[C@H]4O)[C@@H](O)[C@H](O)[C@H]3O)CC[C@]3(C)C(=CC[C@@H]4[C@@]5(C)CC[C@H](O[C@@H]6OC[C@H](O)[C@H](O)[C@H]6O)[C@@](C)(CO)[C@@H]5CC[C@]43C)[C@@H]2C1 [Asperosaponin VI]
- Mean Luminescence [1]: 955.83
- % Activity over baseline [2]: 40.93%
- % Activity relative to Rapamycin [3]: 73.74%

SMILES: CC[C@H](C)[C@H](N)C1=N[C@H](C(=O)N[C@@H](CC(C)C)C(=O)N[C@H](CCC(=O)O)C(=O)N[C@H](C(=O)N[C@H]2CCCCNC(=O)[C@H](CC(N)=O)NC(=O)[C@@H](CC(=O)O)NC(=O)[C@H](Cc3cnc[nH]3)NC(=O)[C@@H](Cc3ccccc3)NC(=O)[C@H]([C@@H](C)CC)NC(=O)[C@@H](CCCN)NC2=O)[C@@H](C)CC)CS1 [Bacitracin] ({Ileψ(thiazoline)Cys}-L[dE]IK[dOrn]I[dF]H[dD]N; lactam 4-C)
- Mean Luminescence [1]: 860.05
- % Activity over baseline [2]: 46.85%
- % Activity relative to Rapamycin [3]: 84.41%

SMILES: COc1nc2ccc(Br)cc2cc1[C@@H](c1ccccc1)[C@@](O)(CCN(C)C)c1cccc2ccccc12 [Bedaquiline]
- Mean Luminescence [1]: 802.99

From patent publication US20250381110A1, “SKIN CARE COMPOSITION AND METHOD OF USING THE SAME” (THE PROCTER & GAMBLE COMPANY, priority 2024, published 2025)
